Patent publication US20250152570A1 (AIR FORCE MEDICAL UNIVERSITY, priority 2022, published 2025)

Legend:
TE10 cells [1] = test: CCK8 cell proliferation, TE10; type: cell-based; conditions: compared with the blank control
Source text: (§1) At the same time, BI-D1870 was used as a positive control, and no drug was used as a blank control (Black).
(§2) The growth curve was drawn based on time and absorbance value.

ECA109 cells [2] = test: CCK8 cell proliferation, ECA109; type: cell-based; conditions: compared with the blank control
Source text: as §1, §2

TE10 cells [3] = test: Transwell migration assay, TE10; type: cell-based; conditions: compared with the blank control
Procedure: as §1
(§3) • (1) Digest cells. Wash once with PBS, resuspend in serum-free medium, and adjust the cell density to 5×10^5/ml. • (2) Add 500 μl of culture medium containing 10% fetal bovine serum to the lower chamber of the 24-well plate. Take 200 μl of cell suspension and add it to the chamber. Note that there are no bubbles between the chamber and the lower culture medium. • (3) Culture routinely for 16-24 h. • (4) Aspirate the culture medium in the chamber, fix the cells in the chamber with anhydrous methanol for 15 min, and rinse with PBS. • (5) Color: Add Gumsa staining solution to the 24-well plate, immerse the membrane in the staining solution for 20 min, and wash with PBS. • (6) Carefully wipe off the cells on the inner layer of the membrane with a cotton swab and air-dry the membrane. • (7) Take pictures under a microscope, count 5 high-power fields, and take the average value.

ECA109 cells [4] = test: Transwell migration assay, ECA109; type: cell-based; conditions: compared with the blank control
Procedure: as §1, §3

[5] = test system: RSK4 downstream substrates (P-RPS6, P-GSK3β); test: Western blot of phosphorylation level of RSK4 downstream substrates; type: cell-based; conditions: TE10, ECA109 cells
Procedure: Western blot was used to detect the effect of phosphorylation level of RSK4 downstream substrates.
(1) Protein extraction, using Kangwei Century RIPA lysis buffer. Place the cell culture flask on ice for 20 minutes, shake it back and forth, and blow it with a pipette. Scrape the cells with a cell scraper, transfer them to an EP tube, and centrifuge them at 4° C. 10-20 μl can be aspirated for protein quantification. Add loading buffer, boil for 5 min, centrifuge at 12000 rpm for 5 min, and store in an ultra-low temperature refrigerator. Tissue protein extraction: Grind in liquid nitrogen, transfer to EP tube after melting, lyse on ice for 20 min, and centrifuge at 4° C.
(2) Protein quantification, use the Kangwei Century BCA quantification kit. Make two replicate wells for each sample, take the average value to make a standard curve and calculate the sample concentration.
(3) Protein electrophoresis, use the Kangwei Century SDS-PAGE gel preparation kit. The separation gel concentration is 8%, and the concentration gel concentration is 5%. The separation gel is 1.5 cm away from the upper edge of the front glass plate and filled with water to seal the gel. Use filter paper to absorb the water sealing liquid, fill the concentrated gel, and insert the comb. The voltage is 100V constant for 1 h30 min until the bromophenol blue runs out and stops electrophoresis.
(4) Transfer to membrane, soak the gel, filter paper, and sponge pad in 4° C. pre-cooled transfer buffer for 10 min, soak the PVDF membrane with methanol for 5 min, and transfer it to the transfer buffer for 10 min after it is fully wetted. Installation The order of transfer clips: black plate, sponge, 3 layers of filter paper, gel, membrane, 3 layers of filter paper, sponge, white plate. Expel bubbles at each step and place the membrane in one go. […]
(8) Luminescence: Use the Kangwei Century Chemiluminescence Detection Kit and scan the detection results with a chemiluminescence imager.
(9) Use Photoshop software to perform semi-quantitative grayscale analysis of the image and calculate the relative expression of the protein.

ESCC cells = test: Nude mouse tumor formation experiment, esophageal squamous cell carcinoma; type: in vivo, BALB/c nude mice; conditions: intraperitoneally 15 mg/kg or 30 mg/kg per day; 20 days
Procedure: • (1) Nude mouse tumor formation experiment was performed on 4-6 week old female BALB/c nude mice, with 5 nude mice in each group. Each mouse was subcutaneously injected with about 1×10^6 ESCC cells dissolved in 200 μl sterile PBS. • (2) When the tumor volume reached 150 mm^3, the mice were divided into groups and treated differently. […] If the mice were infected or in poor condition, they were treated in time. During this period, the tumor volume was measured every 3-5 days, and the volume calculation formula was length×width 2×0.5. • (4) At the end of the experiment, the mice were killed, the subcutaneous tumors were removed, photographed, weighed, and counted.

KYSE450-IR = test: CCK8 proliferation of icotinib-resistant strain KYSE450-IR; type: cell-based; conditions: for proliferation of KYSE450-IR: 2 μm, CCK8, DMSO blank control
Procedure: (§4) The CCK-8 cell proliferation kit of Shanghai Taoshu Biotechnology Co., Ltd. was used. • (1) Cell suspension was inoculated in a 96-well plate, 100 μL per well, 2,000 cells per well. • (2) Culture or give drugs according to experimental needs, and treat for an appropriate time. • (3) Add 10 μL of CCK-8 solution to each well and incubate at 37° C. • (4) The absorbance value was determined by selecting a wavelength of 450 nm on the microplate reader. The growth curve was drawn based on time and absorbance value.
(§5) The expression level of EGFR and the sensitivity to icotinib and afatinib in various ESCC cell lines (T1, T10, T11, KYSE150, KYSE450, ECA109, EC9706) were detected. The cell line KYSE450 with high EGFR expression and sensitivity to afatinib (low IC50) was selected. The icotinib and afatinib drug concentration increasing mode of action was used to induce KYSE450 cells to produce drug resistance, and a stable cell line resistant to icotinib and afatinib was obtained. The optimal drug concentration gradient for inducing afatinib obtained from the literature reports and the preliminary experiments before formal induction culture was: 100 nM, 300 nM, 500 nM, 800 nM, 1 μM and 5 μM. The initial induction dose of this experiment was 100 nM, and the highest induction dose was 5 μM. During the induction period, the culture medium containing icotinib and afatinib was replaced every 2 days. When the initial induction dose was induced for two weeks and the cell growth was stable, the drug induction dose began to be doubled, and each dose was maintained for 14 days before reaching the highest induction dose. The drug-resistant cells obtained after 10 months of induction culture were named KYSE450/IR KYSE450/AR cell lines.

KYSE450/AR = test: CCK8 proliferation of afatinib-resistant strain KYSE450/AR; type: cell-based; conditions: FIG. 10
Procedure: as §4
as §5, with “When the initial induction dose was induced for two weeks and the cell growth was stable, the drug induction dose began to be doubled, and each dose was maintained for 14 days before reaching the highest induction dose. The drug-resistant cells obtained after 10 months of induction culture were named KYSE450/IR KYSE450/AR cell lines.” left out

B16F10 (melanoma) = B16F10 (melanoma) transplant tumor model; type: in vivo, C57BL/6 mice; conditions: Selonsertib 15 mg/kg per day i.p.; Anti-PD1 50 μg/kg once every two days; 10 days
Procedure: (§6) • (1) B16F10 (melanoma) and LLC (Lewis lung cancer) transplant tumor models were constructed in 6-8 week old C57BL/6 mice, with 6 mice in each group. Each mouse was subcutaneously injected with about 1×10^6 B16F10 cells and 5×10^6 LLC cells dissolved in 200 μl sterile PBS. • (2) When the tumor volume reached 150 mm^3, the mice were divided into groups and treated differently. […] The Anti-PD1 used in this experiment was specifically In VivoPlus anti-mouse PD-1 (CD279). • (3) The experimental observation time lasted for 10 days (melanoma) or 20 days (Lewis lung cancer). If the mice were infected or in poor condition, they were treated in time. During the period, the tumor volume was measured every 2 days, and the volume calculation formula was length×width 2×0.5. • (4) At the end of the experiment, the mice were killed, the subcutaneous tumors were removed, photographed, weighed, and counted.

LLC (Lewis lung cancer) = LLC (Lewis lung cancer) transplant tumor model; type: in vivo, C57BL/6 mice; conditions: Selonsertib 15 mg/kg per day i.p.; Anti-PD1 50 μg/kg once every two days; 20 days
Procedure: as §6

CC(C)CCN1c2nc(Nc3cc(F)c(O)c(F)c3)ncc2N(C)C(=O)C1C (stereo not shown) [BI-D1870]
proliferation of TE10 (TE10 cells [1]): can inhibit
proliferation of ECA109 (ECA109 cells [2]): can inhibit
migration of TE10 (TE10 cells [3]): can inhibit
migration of ECA109 (ECA109 cells [4]): can inhibit

Cc1cc(F)c(C(=O)Nc2cccc(-c3nncn3C(C)C)n2)cc1-n1cnc(C2CC2)c1 [Selonsertib, 5-(4-cyclopropyl-1H-imidazol-1-yl)-2-fluoro-N-(6-(4-isopropyl-4H-1,2,4-triazol-3-yl)pyridine-2-yl)-4-methylbenzamide]
expression of P-GSK3β (ser9) [5]: downregulate
expression of P-RPS6 (S235/S236) [5]: downregulate
phosphorylation of RSK4 downstream substrates ([5]; different concentrations): could inhibit
proliferation of TE10 (TE10 cells [1]): can inhibit
proliferation of ECA109 (ECA109 cells [2]): can inhibit
migration of TE10 (TE10 cells [3]): can inhibit
migration of ECA109 (ECA109 cells [4]): can inhibit
inhibitory effect on tumor growth compared with the positive control (BI-D1870) (ESCC cells): stronger inhibitory effect on tumor growth at a lower dose
proliferation of KYSE450-IR (KYSE450-IR): can inhibit
resistance of esophageal squamous cell carcinoma to icotinib (KYSE450-IR; FIG. 9): reverses the resistance
KYSE450/AR proliferation (KYSE450/AR; 2 μm, CCK8): basically consistent with those of KYSE450-IR
resistance of esophageal squamous cell carcinoma to afatinib (KYSE450/AR): reverses the resistance
proliferation of melanoma (tumor growth) (B16F10 (melanoma)): can inhibit
proliferation of Lewis lung cancer (tumor growth) (LLC (Lewis lung cancer)): can inhibit

C#Cc1cccc(Nc2ncnc3cc4c(cc23)OCCOCCOCCO4)c1 [icotinib]
proliferation of KYSE450-IR (KYSE450-IR): extremely low
